In data set [1] the test system is Stat3. The experiment in a line: EMSA of Stat3 DNA-binding activity in nuclear extracts. It counts as cell-based, human. The note with it: for Stat3 DNA-binding activity: A2058 (also A2056) human melanoma cells. As for the experimental part: Nuclear extracts (1-8 μg of total protein) were incubated with the ^32P-radiolabled hSEE (high-affinity Sis-Inducible Element) oligonucleotide probe. Protein-DNA complexes were resolved by 5% non-denatured polyacrylamide gel electrophoresis (PAGE) and specific STAT/DNA complexes were detected by autoradiography.
Background: Mobility shift assays separate free from complexed probe on a gel.

The test system of the next data set is HIF-1α. The experiment in a line: Western blot of HIF-1α protein in tumor cells. It is filed as cell-based, human. As to conditions: for HIF-1α protein level: A2058 (also A2056) human melanoma cells, constitutively active c-Src. (Immunoblotting shows a protein as a band on a membrane.)
For the next data set, the system named is VEGF. The data set is described as follows: Western blot of VEGF protein in tumor cells. It counts as cell-based, human. The text has this:
[…] Fifty […] of nuclear or whole-cell extracts was used for Western blot analysis. HIF-1α rabbit polyclonal antibody (H-206) (1:500 dilution), HIF-1β mouse monoclonal antibody (1:1,500 dilution), AKT1 mouse monoclonal, anti-phospho-AKT rabbit polyclonal, anti-VEGF monoclonal antibody (1:1,000 dilution) were used for the Western blot analyses. Horseradish peroxidase-conjugated sheep anti-mouse and donkey anti-rabbit or anti-goat secondary antibodies were used at 1:2,000 and 1:5,000 dilutions, respectively. The signal was developed with SuperSignal West Pico Chemiluminescent Substrate (PIERCE).

The target of data set [2] is Stat3 (Homo sapiens, UniProt P40763). As to conditions: cited from earlier work.
The next data set has as its system Jak2. As to conditions: cited from earlier work.
For data set [3], the system named is MDA-MB-468 and MDA-MB453 cells. The experiment in a line: Flow cytometry cell cycle analysis. As to conditions: 20 μM LY294002, 0.05 μM JSI-124, 48 h. It is filed as cell-based, human. As to the method: MDA-453 cells were treated with vehicle DMSO (control), 20 μM LY294002; 0.05 μM JSI-124 or 20+0.05 μM LY294002+JSI-124 for 48 h, followed by flow cytometry analysis.
Cell cycle analysis based on DNA content was performed as we described previously. At each time point, cells were harvested, counted, and washed twice with wash buffer (1 mg glucose per ml PBS). Cells (2×10^6) were suspended in 0.5 ml PBS, fixed in 5 ml of 70% ethanol for over night at −20° C., centrifuged, washed once with PBS and resuspended again in 1 ml of propidium iodide staining solution (50 jig propidium iodide, 100 units RNase A and 1 mg glucose per ml PBS), and incubated at room temperature in the dark for 30 min. The cells were then analyzed with FACScan (Becton Dickinson Immunocytometry, Calif.), ModFit LT and WinMDI V.2.8 cell cycle analysis software (Verity Software; Topsham, Me.). The cell cycle distribution is shown as the percentage of cells containing G1, S, G2, and M DNA judged by propidium iodide staining.
To determine the effect of combination treatment on cell cycle changes, MDA-MB-468 and MDA-MB453 cells were treated with the indicated concentrations of LY294002, JSI-124 or their combinations for 48 h, followed by flow cytometry analysis.
For orientation: Flow cytometry measures light scatter and fluorescence of single cells or particles in a stream.

For data set [4], the system named is MDA-MB-468 cells. The experiment in a line: TUNEL assay (apoptosis). It counts as cell-based, human. The note with it: single agents: 20 μM LY294002; 0.1 or 0.05 μM JSI-124; 48 h. As to the method: The assay was performed following manufacturer's instruction using the APO-Direct kit. […] After removing the DNA labeling solution by rinsing cells with Rinsing Buffer, the cells were incubated with the Propidium Iodide/RNase A solution, incubated for 30 min at room temperature in the dark, and then analyzed by flow cytometry within 3 h of staining.

Data set [5] concerns MDA-MB-468 cells. The data set is described as follows: Trypan blue dye exclusion assay (cell death). It is filed as cell-based, human. The note with it: 48 h. As for the experimental part:
MDA-MB-468 cells were treated with vehicle DMSO (control), 10 or 20 μM LY294002; 0.05 EM JSI-124; 10+0.05 μM LY294002+JSI-124; or 20+0.05 μM LY294002+JSI-124 for 48 h, followed by trypan blue dye exclusion assay. The numbers indicate the percentage of dead cells. Standard deviations are shown with error bars.
The trypan blue dye exclusion assay was performed by mixing 20 μl of cell suspension with 20 μl of 0.4% trypan blue dye before injecting into a hemocytometer and counting. The number of cells that absorbed the dye and those that exclude the dye were counted, from which the percentage of nonviable cell number to total cell number was calculated.
To determine whether the combination treatment is more beneficial than single agent treatment to induce breast cancer cell death, MDA-MB-468 cells were treated with the indicated concentrations of either drug alone or in combinations for 48 h, followed by trypan blue dye incorporation assays.

Data set [6] has as its system PI3k/Akt or Mek/Erk pathways. The note with it: cited from earlier work.
In another data set the test system is AKT1 mRNA. The data set is described as follows: Microarray gene expression database, AKT1 mRNA. The note with it: MDA-MB435 human breast cancer cell line. It counts as cell-based.
Where [7] appears, read: EGF stimulation, DU145 human prostate cancer cells (data not shown).

Stat3 (Homo sapiens, UniProt P40763), sequence (P40763 whole entry): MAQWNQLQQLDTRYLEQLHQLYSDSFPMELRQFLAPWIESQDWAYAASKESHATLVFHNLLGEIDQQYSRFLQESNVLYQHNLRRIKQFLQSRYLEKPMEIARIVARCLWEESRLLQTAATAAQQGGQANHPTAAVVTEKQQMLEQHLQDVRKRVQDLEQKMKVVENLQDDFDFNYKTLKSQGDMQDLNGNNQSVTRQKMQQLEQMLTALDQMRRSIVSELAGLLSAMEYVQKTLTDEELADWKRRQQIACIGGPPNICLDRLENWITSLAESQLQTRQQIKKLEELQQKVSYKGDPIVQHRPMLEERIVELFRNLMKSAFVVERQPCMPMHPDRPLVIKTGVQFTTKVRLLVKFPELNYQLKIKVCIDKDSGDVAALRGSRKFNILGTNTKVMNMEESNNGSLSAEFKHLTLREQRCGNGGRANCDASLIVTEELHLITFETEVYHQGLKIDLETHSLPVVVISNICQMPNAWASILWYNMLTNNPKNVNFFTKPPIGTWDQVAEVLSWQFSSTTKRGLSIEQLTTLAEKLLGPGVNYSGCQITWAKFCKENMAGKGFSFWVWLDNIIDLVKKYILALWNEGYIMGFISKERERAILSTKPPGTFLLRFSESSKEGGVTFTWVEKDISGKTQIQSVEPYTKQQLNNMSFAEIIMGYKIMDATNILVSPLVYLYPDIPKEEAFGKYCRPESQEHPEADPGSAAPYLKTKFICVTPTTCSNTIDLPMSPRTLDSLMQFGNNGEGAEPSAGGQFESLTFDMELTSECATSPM

With heregulin, the “activated Stat3” value in the data set with Stat3 [1] (MCF-7 cells, heregulin at 100 ng/ml) was “detectable levels of activated Stat3”. Further, the HIF-1α expression result in the data set on HIF-1α (MCF-7 cells, heregulin) is on record as “induces HIF-1α expression”. For the same compound, in the data set on VEGF (control MCF-7 cells, heregulin), the VEGF expression result is “upregulates VEGF expression”.
With `CC(=O)OC(C)(C)/C=C/C(=O)[C@](C)(O)[C@H]1[C@H](O)C[C@@]2(C)[C@@H]3CC=C4[C@H](C[C@H](O)C(=O)C4(C)C)[C@]3(C)C(=O)C[C@]12C` [Cucurbitacin B], the Stat3 activation entry at Stat3 [2] is “suppress both Stat3 and Jak2 activation”. Besides, the Jak2 activation entry in the data set with Jak2 is “suppress both Stat3 and Jak2 activation”.
As for `CC(C)(O)/C=C/C(=O)[C@](C)(O)C1[C@H](O)C[C@@]2(C)C3CC=C4C(C=C(O)C(=O)C4(C)C)[C@]3(C)C(=O)C[C@]12C` (some centres unmarked) [JSI-124, Cucurbitacin I], the Stat3 activation result on Stat3 [2] is “suppress both Stat3 and Jak2 activation”. Further, the “accumulation in G0/G1 phase” value in data set [3] is “not either single drug treatment”. Moreover, in the data set with MDA-MB-468 cells [4], the apoptosis induction entry is “Little apoptosis induction”. For the same compound, in the data set on MDA-MB-468 cells [5] (0.05 μM JSI-124 alone), the cell death turned out to be 7%. Moreover, the Jak2 activation entry in the data set on Jak2 was “suppress both Stat3 and Jak2 activation”. Moreover, in [6], the “inhibition of PI3k/Akt or Mek/Erk pathways” value was “does not inhibit the PI3k/Akt or Mek/Erk pathways”.
`C[C@@H]1C[C@@H]([C@H](O)CC2CC(=O)NC(=O)C2)C(=O)[C@@H](C)C1` [cycloheximide]: in the data set on HIF-1α (MCF-7 cells, 20 ng/ml IL-6, protein synthesis blocked), the “IL-6-induced HIF-1α expression” value is recorded as “attenuation of HIF-1α expression”.
`CC(=O)OC(C)(C)/C=C/C(=O)[C@](C)(O)[C@H]1[C@H](O)C[C@@]2(C)[C@@H]3CC=C4[C@@H](C=C(O)C(=O)C4(C)C)[C@]3(C)C(=O)C[C@]12C` [Cucurbitacin E]: the Stat3 activation entry on Stat3 [2] was “suppress both Stat3 and Jak2 activation”. For the same compound, the Jak2 activation result in the data set with Jak2 is “suppress both Stat3 and Jak2 activation”.
Turning to `CCN(CC)CCOc1ccc(Nc2ncc3cc(-c4c(Cl)cccc4Cl)c(=O)n(C)c3n2)cc1` [PD166285], the “Stat3 DNA-binding activity” value in the data set on Stat3 [1] is “parallel reduction in Stat3 DNA-binding activity”. In addition, in the data set with HIF-1α, the HIF-1α protein level entry is recorded as “dose-dependent reduction in HIF-1α protein level”.
As for “Stat3 antisense oligonucleotide: antisense nucleic acid 5′-AAAAAGTGCCCAGATTGCCC-3′ used to knock down Stat3 expression (listed as DNA, chemistry not given here)”, the HIF-1α upregulation entry in the data set on HIF-1α (setting [7]) was “required for both HIF-1α and VEGF upregulation by EGF stimulation”. In addition, the VEGF upregulation entry in the data set on VEGF (setting [7]) is “required for both HIF-1α and VEGF upregulation by EGF stimulation”. Moreover, the “AKT1 mRNA expression” value in the data set with AKT1 mRNA is recorded as “reduction in AKT1 mRNA expression”.
Take `O=c1cc(N2CCOCC2)oc2c(-c3ccccc3)cccc12` [LY294002, 2-(4-morpholinyl)-8-phenyl-4H-1-benzopyran-4-one]: the “accumulation in G0/G1 phase” value in [3] was “not either single drug treatment”. Further, in the data set on MDA-MB-468 cells [4], the apoptosis induction result was “Little apoptosis induction”. In addition, the cell death in the data set on MDA-MB-468 cells [5] (20 μM LY294002 alone) came out at 14%.
Cucurbitacin Q: the Stat3 activation result at Stat3 [2] is recorded as “suppress Stat3 activation”. Besides, the Jak2 activation entry in the data set with Jak2 is reported as “not Jak2 activation”.
In the case of `Cc1cc(Nc2ncc3cc(-c4c(Cl)cccc4Cl)c(=O)n(C)c3n2)ccc1F` [PD180970], the “Stat3 DNA-binding activity” value in the data set on Stat3 [1] was “parallel reduction in Stat3 DNA-binding activity”. The HIF-1α protein level result in the data set on HIF-1α is “dose-dependent reduction in HIF-1α protein level”.
Consider `CCC(O)[NH+]1CC[NH+](C(O)CC)CC1.[Cl][Pt-2]([Cl])([Cl])([Cl])([Cl])[Cl]` (centres unmarked) [IS3 295], for which the “Stat3 activity (DNA-binding)” value in the data set with Stat3 [1] (DU145 prostate cancer cells) is “reduction in Stat3 activity in a dose-dependent manner”. For the same compound, in the data set with HIF-1α (DU145 tumor cells), the HIF-1α expression result was “reduction in the expression of both HIF-1α and VEGF”. In addition, in the data set on VEGF (DU145 tumor cells), the VEGF expression entry was “reduction in the expression of both HIF-1α and VEGF”.

(Values after patent publication US20060030536A1, “Combination therapies for cancer and proliferative angiopathies” (University of South Florida, priority 2004, published 2006).)
